The nature of the data set: molar enthalpy of vaporization or sublimation. Particulars: 298.15 K; Liquid; calvet microcalorimetry.

Numbers after ± are expanded uncertainties.

For the compound `C1COCCN1` [tetrahydro-1,4-oxazine], the molar enthalpy was determined as 46.5 ± 0.8 kJ/mol. In the case of `C1CSCCN1` [thiomorpholine], the molar enthalpy was 54 ± 3 kJ/mol.

These data come from the NIST ThermoML archive (doi:10.1021/je4007162).
